Assay: Concentration required for the neuroprotective effect determined by inhibition of GCP II

EC50 | SMILES
9.5 nM | O=C(O)CCC(CP(=O)(O)Cc1c(F)c(F)c(F)c(F)c1F)C(=O)O (racemic)
1100 nM | O=C(O)CCC(CCCC(=O)NO)C(=O)O (stereo not drawn) [2-(3-Hydroxycarbamoyl-propyl)-pentanedioic acid]
220 nM | O=C(O)CCC(CC(=O)NO)C(=O)O (stereo not drawn) [2-[(hydroxycarbamoyl)methyl]pentanedioic acid]
